In US20160355530A1, “HEPATITIS C INHIBITORS AND USES THEREOF” (AbbVie Inc., priority 2010, published 2016):
Like-named read-outs stand apart in the source and are kept apart here.

Key:
[1] = target: T1, HCV NS5B polymerase 1b BK strain (Hepatitis C virus genotype 1b, UniProt P26663); assay: HCV NS5B polymerase enzymatic inhibition assay, strain 1b BK; assay type: biochemical; conditions: enzyme, strain 1b BK; read-out: HCV Polymerase Strain 1b BK IC50
T1 construct: six-histidine tag; made in house; host or cells: E. coli
How it was run: (§1)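 Recombinant NS5B (residues 1–570, His-tagged, E. coli-expressed) copied 5 nM of a 2.1 kb HCV 1b negative-strand 3′-end RNA template with 20 μM CTP, 20 μM ATP and 0.284 μM [3H]UTP for 3 h at 30 °C. Spermine-precipitated RNA was filter-captured and counted, and IC50 was fitted by nonlinear regression.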

[2] = tested on: HCV 1a-H77 C316Y mutant subgenomic replicon; assay: Stable replicon cell culture assay (luciferase), 1a-H77-C316Y mutant; assay type: cell-based, HCV genotype 1a; conditions: for EC50: Hepatitis C virus, read-out: Stable Replicon 1a H77-C316Y 5% FBS EC50; for Stable Replicon Fold Resistance C316Y/1a: ratio of stable replicon EC50s, C316Y / 1a H77
[3] = tested on: chimeric replicon with 2a-J6CF-derived NS5B; assay: microbe, parasite or virus in culture; assay type: cell-based, HCV genotype 2a; conditions: Hepatitis C virus, read-out: 2a chimera 5% FBS EC50
[4] = tested on: HCV 1b-BB7 subgenomic replicon; assay: microbe, parasite or virus in culture; assay type: cell-based, HCV genotype 1b; conditions: Hepatitis C virus, stable replicon
[5] = tested on: HCV NS5B polymerase 1a-H77-C316Y; assay: biochemical; parameters: species or system HCV genotype 1a; conditions: ratio of enzyme IC50s, 1a H77-C316Y / 1a H77
How it was run: as §1

[6] = target: T2, HCV NS5B polymerase 1a-H77-C316Y (Hepatitis C virus genotype 1a, UniProt P27958, C2736Y); assay: biochemical; parameters: species or system HCV genotype 1a
T2 construct: six-histidine tag; made in house; host or cells: E. coli
How it was run: as §1

[7] = target: T3, HCV NS5B polymerase 1a-H77 (Hepatitis C virus genotype 1a, UniProt P27958); assay: biochemical; parameters: species or system HCV genotype 1a; conditions: enzyme, strain 1a H77; read-out: HCV Polymerase Strain 1a H77 IC50
T3 construct: six-histidine tag; made in house; host or cells: E. coli
How it was run: as §1

[8] = tested on: chimeric replicon with genotype 3a NS5B; assay: microbe, parasite or virus in culture; assay type: cell-based, HCV genotype 3a; conditions: Hepatitis C virus, read-out: 3a chimera 5% FBS EC50
[9] = tested on: HCV 1a-H77 subgenomic replicon; assay: microbe, parasite or virus in culture; assay type: cell-based, HCV genotype 1a; conditions: Hepatitis C virus, stable replicon
[10] = tested on: chimeric replicon with genotype 2b NS5B; assay: microbe, parasite or virus in culture; assay type: cell-based, HCV genotype 2b; conditions: Hepatitis C virus, read-out: 2b chimera 5% FBS EC50
[11] = tested on: chimeric replicon with genotype 4a NS5B; assay: microbe, parasite or virus in culture; assay type: cell-based, HCV genotype 4a; conditions: Hepatitis C virus, read-out: 4a chimera 5% FBS EC50
[12] = tested on: HCV 1a-H77 transient subgenomic replicon in Huh-7 derived cell line; assay: microbe, parasite or virus in culture; assay type: cell-based, HCV genotype 1a; conditions: Hepatitis C virus, Huh-7; transient replicon, 5% FBS; read-out: Transient Replicon 1a H77 5% FBS EC50
How it was run: (§2)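 Subgenomic replicon RNA (no Neo gene) electroporated into Huh-7-derived cells, plated at 5×10^3 cells/well; a 4 h plate gauged transfection efficiency. Cells exposed to 3-fold compound dilutions (0.5% DMSO) for 4 days at 37° C, then lysed for luciferase readout; EC50 calculated.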

[13] = tested on: HCV 1a-H77-C316Y transient subgenomic replicon in Huh-7 derived cell line; assay: microbe, parasite or virus in culture; assay type: cell-based, HCV genotype 1a; conditions: for EC50: Hepatitis C virus, Huh-7, read-out: Transient Replicon 1a H77-C316Y 5% FBS EC50; for Transient Replicon Fold Resistance C316Y/1a: ratio of transient replicon EC50s, C316Y / 1a H77
How it was run: as §2

[14] = strain 1b BB7, 5% FBS + 40% human plasma, read-out: 1b BB7 5% FBS + 40% Human Plasma EC50
[15] = strain 1b BB7, 5% FBS, no human plasma, read-out: 1b BB7 5% FBS EC50
[16] = strain 1b BB7, 5% FBS, read-out: 1b BB7 5% FBS EC50
[17] = 5% FBS, absence of human plasma, read-out: Stable Replicon 1a H77 5% FBS EC50
[18] = strain 1a H77, 5% FBS + 40% human plasma, read-out: 1a H77 5% FBS + 40% Human Plasma EC50
[19] = strain 1a H77, 5% FBS, no human plasma, read-out: 1a H77 5% FBS EC50
[20] = strain 1a H77, 5% FBS, read-out: 1a H77 5% FBS EC50

T1 sequence (P26663 2420-2989): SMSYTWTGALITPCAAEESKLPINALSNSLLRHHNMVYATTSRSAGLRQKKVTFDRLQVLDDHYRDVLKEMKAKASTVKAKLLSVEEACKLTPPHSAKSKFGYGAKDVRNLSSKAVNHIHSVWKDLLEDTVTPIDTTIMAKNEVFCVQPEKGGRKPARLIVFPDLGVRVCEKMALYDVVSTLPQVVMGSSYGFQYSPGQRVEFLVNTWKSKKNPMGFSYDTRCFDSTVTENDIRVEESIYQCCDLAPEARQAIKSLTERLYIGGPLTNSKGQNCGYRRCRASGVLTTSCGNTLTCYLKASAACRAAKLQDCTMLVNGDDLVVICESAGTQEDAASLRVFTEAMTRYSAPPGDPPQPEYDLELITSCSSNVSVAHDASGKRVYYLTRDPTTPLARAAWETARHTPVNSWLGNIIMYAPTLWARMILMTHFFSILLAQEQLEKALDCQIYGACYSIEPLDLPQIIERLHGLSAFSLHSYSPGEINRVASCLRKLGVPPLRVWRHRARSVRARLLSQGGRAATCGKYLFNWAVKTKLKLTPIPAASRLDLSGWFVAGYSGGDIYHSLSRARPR
T3 sequence (P27958 2421-2990): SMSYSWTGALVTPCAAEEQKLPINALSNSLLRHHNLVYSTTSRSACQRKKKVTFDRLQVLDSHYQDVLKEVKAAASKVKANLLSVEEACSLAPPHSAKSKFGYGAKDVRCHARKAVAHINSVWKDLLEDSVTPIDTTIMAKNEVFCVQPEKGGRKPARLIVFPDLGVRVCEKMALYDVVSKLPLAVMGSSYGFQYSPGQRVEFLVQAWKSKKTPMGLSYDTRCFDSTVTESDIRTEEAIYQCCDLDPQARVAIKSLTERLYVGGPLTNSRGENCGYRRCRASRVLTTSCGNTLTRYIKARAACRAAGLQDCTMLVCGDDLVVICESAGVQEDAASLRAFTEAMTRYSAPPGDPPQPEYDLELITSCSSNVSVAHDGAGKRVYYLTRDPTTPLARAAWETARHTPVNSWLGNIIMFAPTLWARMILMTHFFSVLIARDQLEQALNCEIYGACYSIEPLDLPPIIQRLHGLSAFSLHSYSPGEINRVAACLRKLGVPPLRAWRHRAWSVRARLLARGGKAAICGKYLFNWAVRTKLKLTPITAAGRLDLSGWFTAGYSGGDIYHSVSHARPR
T2 sequence (P27958 2421-2990 C2736Y): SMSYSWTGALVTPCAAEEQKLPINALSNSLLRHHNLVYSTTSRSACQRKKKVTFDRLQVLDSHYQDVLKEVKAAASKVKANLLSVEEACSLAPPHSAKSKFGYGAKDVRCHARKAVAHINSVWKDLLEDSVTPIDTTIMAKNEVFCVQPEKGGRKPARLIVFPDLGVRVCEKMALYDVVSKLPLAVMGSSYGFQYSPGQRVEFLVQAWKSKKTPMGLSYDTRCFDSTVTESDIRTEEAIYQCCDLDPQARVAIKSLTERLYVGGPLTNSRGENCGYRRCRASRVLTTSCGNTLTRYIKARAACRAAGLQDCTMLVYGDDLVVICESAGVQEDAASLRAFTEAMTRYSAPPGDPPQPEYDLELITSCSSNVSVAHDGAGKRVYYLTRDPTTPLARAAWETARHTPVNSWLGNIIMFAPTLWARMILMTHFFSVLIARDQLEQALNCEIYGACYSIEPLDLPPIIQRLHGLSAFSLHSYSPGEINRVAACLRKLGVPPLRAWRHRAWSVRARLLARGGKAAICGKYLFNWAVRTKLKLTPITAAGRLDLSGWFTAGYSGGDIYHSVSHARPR

| Structure (SMILES) | IC50 [1] | EC50 [2] | Stable Replicon Fold Resistance C316Y/1a [2] | EC50 [3] | EC50 [4, 14] | EC50 [4, 15] | EC50 [4, 16] | C316Y/1a Fold Resistance [5] | IC50 [6] | IC50 [7] | EC50 [8] | EC50 [9, 17] | EC50 [9, 18] | EC50 [9, 19] | EC50 [9, 20] | EC50 [10] | EC50 [11] | EC50 [12] | EC50 [13] | Transient Replicon Fold Resistance C316Y/1a [13] |
| --- | --- | --- | --- | --- | --- | --- | --- | --- | --- | --- | --- | --- | --- | --- | --- | --- | --- | --- | --- | --- |
| CS(=O)(=O)N(CCc1csc(N)n1)c1cc2oc(-c3ccc(F)cc3)c(-c3ncc[nH]3)c2cc1C1CC1 [Example 97, N-[2-(2-amino-1,3-thiazol-4-yl)ethyl]-N-[5-cyclopropyl-2-(4-fluorophenyl)-3-(1H-imidazol-2-yl)-1-benzofuran-6-yl]methanesulfonamide] | 39 nM | 3770 nM | 34.9 fold | 595 nM | 644 nM | 62 nM | 62 nM | 92 fold | 549 nM | 6 nM | 36 nM | 108 nM | 721 nM | 108 nM | 108 nM | 895 nM | 528 nM |  |  |  |
| Cc1cnc(-c2c(-c3ccc(F)cc3)oc3cc(N(CCC(C)C)S(C)(=O)=O)c(C4CC4)cc23)[nH]1 [Example 172, N-[5-cyclopropyl-2-(4-fluorophenyl)-3-(5-methyl-1H-imidazol-2-yl)-1-benzofuran-6-yl]-N-(3-methylbutyl)methanesulfonamide] | 179 nM |  |  | 1000 nM | 1130 nM | 111 nM | 111 nM | 7 fold | 87 nM | 13.3 nM | 233 nM | 67.4 nM | 1220 nM | 67.4 nM | 67.4 nM | 1000 nM | > 1000 nM | 40.4 nM | 103 nM | 3 fold |
| CS(=O)(=O)Nc1cc2oc(-c3ccc(F)cc3)c(C3=NOCN3)c2cc1C1CC1 [Example 173, N-[5-cyclopropyl-3-(4,5-dihydro-1,2,4-oxadiazol-3-yl)-2-(4-fluorophenyl)-1-benzofuran-6-yl]methanesulfonamide] | 86 nM |  |  | 1000 nM | 5060 nM | 301 nM | 301 nM | 198 fold | 1400 nM | 7.1 nM | 146 nM | 809 nM | 9720 nM | 809 nM | 809 nM | 1000 nM | > 1000 nM | 1000 nM | 10000 nM | 10 fold |
| CS(=O)(=O)N(CCCc1nsc(=O)[nH]1)c1cc2oc(-c3ccc(F)cc3)c(-c3ncc[nH]3)c2cc1C1CC1 [Example 178, N-[5-cyclopropyl-2-(4-fluorophenyl)-3-(1H-imidazol-2-yl)-1-benzofuran-6-yl]-N-[3-(5-oxo-4,5-dihydro-1,2,4-thiadiazol-3-yl)propyl]methanesulfonamide] | 65 nM | 544 nM | 10.0 fold | 116 nM | 274 nM | 18 nM | 18 nM | 64 fold | 828 nM | 13 nM | 24.4 nM | 54.4 nM | 431 nM | 54.4 nM | 54.4 nM | 91.3 nM | 239 nM |  |  |  |
| CS(=O)(=O)N(CCCc1n[nH]c(=O)o1)c1cc2oc(-c3ccc(F)cc3)c(-c3ncc[nH]3)c2cc1C1CC1 [Example 179, N-[5-cyclopropyl-2-(4-fluorophenyl)-3-(1H-imidazol-2-yl)-1-benzofuran-6-yl]-N-[3-(5-oxo-4,5-dihydro-1,3,4-oxadiazol-2-yl)propyl]methanesulfonamide] | 25 nM | 686 nM | 70.0 fold | 66 nM | 78 nM | 9 nM | 9 nM | 11 fold | 45 nM | 4 nM | 10.5 nM | 9.8 nM | 52 nM | 9.8 nM | 9.8 nM | 84.9 nM | 77.8 nM |  |  |  |
| CS(=O)(=O)N(CCCCO)c1cc2oc(-c3ccc(F)cc3)c(-c3noc(=O)[nH]3)c2cc1C1CC1 [Example 185, N-[5-cyclopropyl-2-(4-fluorophenyl)-3-(5-oxo-4,5-dihydro-1,2,4-oxadiazol-3-yl)-1-benzofuran-6-yl]-N-(4-hydroxybutyl)methanesulfonamide] | 9000 nM | 10000 nM | 10.0 fold | 1000 nM | 10000 nM | 1000 nM | 1000 nM | 9 fold | 20000 nM | 2300 nM | 770 nM | 1000 nM | 10000 nM | 1000 nM | 1000 nM | 1000 nM | > 1000 nM |  |  |  |
| Cc1c[nH]c(-c2c(-c3ccc(F)cc3)oc3cc(N(CCCCO)S(C)(=O)=O)c(C4CC4)cc23)n1 [Example 187, N-[5-cyclopropyl-2-(4-fluorophenyl)-3-(4-methyl-1H-imidazol-2-yl)-1-benzofuran-6-yl]-N-(4-hydroxybutyl)methanesulfonamide] | 168 nM |  |  | 703 nM | 244 nM | 63.2 nM | 63.2 nM | 6 fold | 159 nM | 25.8 nM | 91.7 nM | 41.9 nM | 409 nM | 41.9 nM | 41.9 nM | 1000 nM | > 1000 nM | 28.9 nM | 128 nM | 4 fold |
| Cc1c[nH]c(-c2c(-c3ccc(F)cc3)oc3cc(N(CCO)S(C)(=O)=O)c(C4CC4)cc23)n1 [Example 189, N-[5-cyclopropyl-2-(4-fluorophenyl)-3-(4-methyl-1H-imidazol-2-yl)-1-benzofuran-6-yl]-N-(2-hydroxyethyl)methanesulfonamide] | 470 nM |  |  | 1050 nM | 445 nM | 114 nM | 114 nM | 18 fold | 461 nM | 25.5 nM | 231 nM | 163 nM | 774 nM | 163 nM | 163 nM | 1860 nM | 2940 nM | 139 nM | 326 nM | 2 fold |
